Among the data in ChEMBL document CHEMBL1201862, “PubChem BioAssay data set” (2004) are IC50, EC50 and AC50 values, retold here.

The source made the active and inactive calls.

The term IC50 denotes the concentration that gives 50% inhibition. Usually EC50 stands for the concentration needed to bring the measured effect to its halfway point. One may read the AC50 as the concentration at which the activity in the assay is half-maximal.

In one experiment the target is Tumor necrosis factor (Homo sapiens, UniProt P01375). The experiment in a line: TNFa-triggered NF-kB activation inhibitors, SAR follow-up, cell-based, revised (AID 2337). It is filed as functional.
In experiment [1] the target is T1, Nucleotide-binding oligomerization domain-containing protein 1 (Homo sapiens, UniProt Q9Y239).
T1 sequence (Q9Y239 whole entry): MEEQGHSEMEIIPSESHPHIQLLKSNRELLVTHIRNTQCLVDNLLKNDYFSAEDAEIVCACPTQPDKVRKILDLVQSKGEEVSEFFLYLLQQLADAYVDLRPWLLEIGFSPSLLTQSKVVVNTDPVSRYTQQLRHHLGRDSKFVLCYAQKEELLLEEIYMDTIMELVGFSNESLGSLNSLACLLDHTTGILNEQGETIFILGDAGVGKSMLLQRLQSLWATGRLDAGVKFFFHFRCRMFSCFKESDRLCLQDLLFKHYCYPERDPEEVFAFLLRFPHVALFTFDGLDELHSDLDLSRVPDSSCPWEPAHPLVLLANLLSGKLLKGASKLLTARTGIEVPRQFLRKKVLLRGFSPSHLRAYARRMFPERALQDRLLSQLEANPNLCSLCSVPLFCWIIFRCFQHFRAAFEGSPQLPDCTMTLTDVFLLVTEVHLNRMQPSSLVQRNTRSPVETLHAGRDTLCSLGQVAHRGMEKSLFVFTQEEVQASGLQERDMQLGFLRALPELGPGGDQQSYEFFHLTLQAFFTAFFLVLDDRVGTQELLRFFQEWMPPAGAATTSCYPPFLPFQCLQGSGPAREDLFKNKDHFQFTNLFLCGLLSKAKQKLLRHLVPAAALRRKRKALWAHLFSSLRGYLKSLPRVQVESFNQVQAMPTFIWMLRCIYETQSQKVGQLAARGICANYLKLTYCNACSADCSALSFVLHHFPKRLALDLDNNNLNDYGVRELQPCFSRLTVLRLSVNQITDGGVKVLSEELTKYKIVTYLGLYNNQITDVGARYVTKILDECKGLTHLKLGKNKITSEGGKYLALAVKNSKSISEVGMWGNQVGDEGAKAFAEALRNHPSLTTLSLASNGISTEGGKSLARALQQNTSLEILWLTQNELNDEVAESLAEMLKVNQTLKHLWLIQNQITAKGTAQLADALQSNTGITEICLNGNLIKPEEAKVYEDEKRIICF
The experiment in a line: NOD1 signaling inhibitors, SAR follow-up, revised (AID 2333). It is filed as functional.

A further experiment concerns HEK293. The experiment can be described thus: cells. The note with it: Homo sapiens.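 Also: cells exposed to compound for 14 hours overnight before viability readout.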
Experiment [2] concerns the target T2, RNA-binding protein pos-1 (Caenorhabditis elegans, UniProt G5EF15).
T2 sequence (G5EF15 whole entry): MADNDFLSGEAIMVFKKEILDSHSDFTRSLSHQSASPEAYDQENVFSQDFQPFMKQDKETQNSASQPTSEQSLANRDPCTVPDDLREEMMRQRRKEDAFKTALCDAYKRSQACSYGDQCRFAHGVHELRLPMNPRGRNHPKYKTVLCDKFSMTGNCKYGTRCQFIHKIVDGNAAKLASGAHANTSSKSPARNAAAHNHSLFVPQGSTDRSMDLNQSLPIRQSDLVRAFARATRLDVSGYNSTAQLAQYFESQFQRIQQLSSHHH
The experiment can be described thus: inhibitors of POS-1/mex-3 RNA binding, dose response, biochemical, fluorescence polarization (AID 1964).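 Also: purified POS-1 fused to maltose binding protein made in E. coli; potency of compounds blocking POS-1 binding to fluorescent RNA.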 A general note: Fluorescence polarisation rises when a labelled molecule tumbles more slowly, as on binding a larger partner.

The next experiment addresses T3, Aspartyl aminopeptidase (Plasmodium falciparum 3D7, UniProt Q8I2J3).
T3 sequence (Q8I2J3 whole entry): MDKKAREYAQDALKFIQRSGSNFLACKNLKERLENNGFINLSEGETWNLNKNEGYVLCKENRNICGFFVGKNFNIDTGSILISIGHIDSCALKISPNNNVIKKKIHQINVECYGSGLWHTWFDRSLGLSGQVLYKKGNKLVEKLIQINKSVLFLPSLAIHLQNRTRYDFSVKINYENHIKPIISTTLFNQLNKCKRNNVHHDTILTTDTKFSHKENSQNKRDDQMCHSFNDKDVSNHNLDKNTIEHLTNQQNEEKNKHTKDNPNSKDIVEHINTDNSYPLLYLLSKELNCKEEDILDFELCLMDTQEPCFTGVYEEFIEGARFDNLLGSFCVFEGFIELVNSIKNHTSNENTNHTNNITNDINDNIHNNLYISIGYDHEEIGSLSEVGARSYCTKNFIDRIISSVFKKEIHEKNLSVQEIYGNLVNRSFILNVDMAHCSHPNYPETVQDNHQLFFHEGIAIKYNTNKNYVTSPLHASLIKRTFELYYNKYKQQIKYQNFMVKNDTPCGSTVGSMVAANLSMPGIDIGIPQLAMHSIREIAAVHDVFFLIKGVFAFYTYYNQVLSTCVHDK

A further experiment has as its target Procathepsin L (Homo sapiens, UniProt P07711).
The target in experiment [3] is T4, Zinc finger protein mex-5 (Caenorhabditis elegans, UniProt Q9XUB2).
T4 sequence (Q9XUB2 whole entry): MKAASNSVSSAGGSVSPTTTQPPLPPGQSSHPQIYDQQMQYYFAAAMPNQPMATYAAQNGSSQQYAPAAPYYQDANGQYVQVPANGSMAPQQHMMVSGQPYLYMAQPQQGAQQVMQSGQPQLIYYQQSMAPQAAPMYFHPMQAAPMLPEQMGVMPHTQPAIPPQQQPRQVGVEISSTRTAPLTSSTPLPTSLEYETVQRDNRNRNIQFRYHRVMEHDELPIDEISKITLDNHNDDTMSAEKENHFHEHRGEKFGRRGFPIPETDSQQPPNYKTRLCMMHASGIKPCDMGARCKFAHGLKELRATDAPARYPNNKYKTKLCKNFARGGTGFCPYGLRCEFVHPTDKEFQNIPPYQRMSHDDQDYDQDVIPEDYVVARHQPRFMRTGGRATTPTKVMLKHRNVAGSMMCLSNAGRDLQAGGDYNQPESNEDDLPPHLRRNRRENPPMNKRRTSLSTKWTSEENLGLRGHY
The experiment can be described thus: MEX-5/TCR-2 RNA interaction inhibitors, dose response, biochemical, C. elegans, fluorescence polarization (AID 1960).

Another experiment concerns the target Large T antigen (Simian virus 40, UniProt P03070). It is filed as functional, Betapolyomavirus macacae.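 Also: Confirmatory-stage PubChem screen for compounds that inhibit SV40 T antigen.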
The target in experiment [4] is Intestinal-type alkaline phosphatase (Mus musculus, UniProt P24822). The experiment in a line: PubChem AID 488785. It is filed as functional.
Experiment [5] concerns the target FAD-linked sulfhydryl oxidase ALR (Homo sapiens, UniProt P55789). The experiment can be described thus: inhibitors of human ALR sulfhydryl oxidase, dose response, biochemical, H2O2 detection, luminescence, cherry-pick (AID 493248).
In experiment [6] the target is T5, Alkaline phosphatase, tissue-nonspecific isozyme (Homo sapiens, UniProt P05186).
T5 sequence (P05186 whole entry): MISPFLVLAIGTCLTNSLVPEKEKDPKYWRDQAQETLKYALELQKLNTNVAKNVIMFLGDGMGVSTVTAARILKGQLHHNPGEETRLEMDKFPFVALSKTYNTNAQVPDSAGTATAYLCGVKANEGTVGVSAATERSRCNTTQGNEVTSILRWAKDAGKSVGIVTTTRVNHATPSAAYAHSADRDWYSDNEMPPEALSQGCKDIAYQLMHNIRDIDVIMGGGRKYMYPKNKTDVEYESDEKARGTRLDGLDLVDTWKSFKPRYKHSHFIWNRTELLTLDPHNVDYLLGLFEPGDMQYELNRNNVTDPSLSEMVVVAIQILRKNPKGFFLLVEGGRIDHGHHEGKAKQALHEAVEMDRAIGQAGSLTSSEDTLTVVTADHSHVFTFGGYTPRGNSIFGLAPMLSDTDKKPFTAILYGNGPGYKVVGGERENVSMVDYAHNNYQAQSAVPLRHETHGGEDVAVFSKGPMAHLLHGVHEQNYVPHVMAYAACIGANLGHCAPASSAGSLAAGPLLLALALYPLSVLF
The experiment in a line: TNAP enzyme inhibition by screening hits, dose response, selectivity assay for mouse IAP inhibitor project, biochemical, human TNAP, uHTS hits (AID 488906). It is filed as functional.

Experiment [7] deals with Intestinal-type alkaline phosphatase (Homo sapiens, UniProt P09923). The experiment can be described thus: inhibition of human intestinal alkaline phosphatase – biochemical, dose response (AID 488876). It is filed as functional.
The target of experiment [8] is T6, Carboxy-terminal domain RNA polymerase II polypeptide A small phosphatase 1 (Homo sapiens, UniProt Q9GZU7).
T6 sequence (Q9GZU7 whole entry): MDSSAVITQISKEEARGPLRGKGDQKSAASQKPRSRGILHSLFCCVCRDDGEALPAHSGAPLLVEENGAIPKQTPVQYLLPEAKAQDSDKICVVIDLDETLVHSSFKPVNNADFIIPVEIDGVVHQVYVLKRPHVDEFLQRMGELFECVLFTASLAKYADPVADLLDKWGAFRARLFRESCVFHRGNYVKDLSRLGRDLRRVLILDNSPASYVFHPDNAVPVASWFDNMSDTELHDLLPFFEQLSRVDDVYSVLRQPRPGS
The experiment can be described thus: inhibitors of CTDSP1, concentration-response testing, biochemical assay, absorbance-based, actives from ultra-high-throughput screening (AID 540297). It is filed as functional.

The target in experiment [9] is T7, Heat shock factor protein 1 (Mus musculus, UniProt P38532).
T7 sequence (P38532 whole entry): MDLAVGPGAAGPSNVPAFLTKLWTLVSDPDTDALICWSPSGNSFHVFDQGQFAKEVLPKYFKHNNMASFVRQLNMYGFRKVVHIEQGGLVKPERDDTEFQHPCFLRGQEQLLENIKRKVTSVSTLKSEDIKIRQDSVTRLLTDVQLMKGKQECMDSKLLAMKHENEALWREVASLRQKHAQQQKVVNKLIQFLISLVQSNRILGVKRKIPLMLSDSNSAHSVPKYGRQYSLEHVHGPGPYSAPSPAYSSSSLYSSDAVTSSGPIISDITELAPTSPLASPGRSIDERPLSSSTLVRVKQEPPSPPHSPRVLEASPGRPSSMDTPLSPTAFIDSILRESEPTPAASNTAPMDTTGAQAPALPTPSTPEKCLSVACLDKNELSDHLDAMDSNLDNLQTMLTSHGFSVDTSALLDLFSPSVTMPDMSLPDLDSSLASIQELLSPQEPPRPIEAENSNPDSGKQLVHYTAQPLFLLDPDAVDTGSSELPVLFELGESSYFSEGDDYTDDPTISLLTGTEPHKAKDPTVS
The experiment can be described thus: HSF1 potentiators in luciferase reporter cells, confirmation, cell-based, NIH3T3, luminescence, dose retest (AID 435004).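 Also: stress induced by proteasome inhibitor MG132 added 30 min after compound; luciferase reporter driven by HSF1 response element in NIH3T3 cells; actives raise luminescence as potentiators of the MG132 stress response.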 It is filed as functional. For orientation: A reporter such as luciferase makes a cellular process visible.

The target of another experiment is Genome polyprotein (dengue virus type 2, UniProt P29990). The experiment in a line: Dengue-2 NS5 methyltransferase inhibitors, primary screen, biochemical, confirmation dose response (AID 588689). It is filed as functional.
Chain of Genome polyprotein (P29990 2492-3391 limits assumed): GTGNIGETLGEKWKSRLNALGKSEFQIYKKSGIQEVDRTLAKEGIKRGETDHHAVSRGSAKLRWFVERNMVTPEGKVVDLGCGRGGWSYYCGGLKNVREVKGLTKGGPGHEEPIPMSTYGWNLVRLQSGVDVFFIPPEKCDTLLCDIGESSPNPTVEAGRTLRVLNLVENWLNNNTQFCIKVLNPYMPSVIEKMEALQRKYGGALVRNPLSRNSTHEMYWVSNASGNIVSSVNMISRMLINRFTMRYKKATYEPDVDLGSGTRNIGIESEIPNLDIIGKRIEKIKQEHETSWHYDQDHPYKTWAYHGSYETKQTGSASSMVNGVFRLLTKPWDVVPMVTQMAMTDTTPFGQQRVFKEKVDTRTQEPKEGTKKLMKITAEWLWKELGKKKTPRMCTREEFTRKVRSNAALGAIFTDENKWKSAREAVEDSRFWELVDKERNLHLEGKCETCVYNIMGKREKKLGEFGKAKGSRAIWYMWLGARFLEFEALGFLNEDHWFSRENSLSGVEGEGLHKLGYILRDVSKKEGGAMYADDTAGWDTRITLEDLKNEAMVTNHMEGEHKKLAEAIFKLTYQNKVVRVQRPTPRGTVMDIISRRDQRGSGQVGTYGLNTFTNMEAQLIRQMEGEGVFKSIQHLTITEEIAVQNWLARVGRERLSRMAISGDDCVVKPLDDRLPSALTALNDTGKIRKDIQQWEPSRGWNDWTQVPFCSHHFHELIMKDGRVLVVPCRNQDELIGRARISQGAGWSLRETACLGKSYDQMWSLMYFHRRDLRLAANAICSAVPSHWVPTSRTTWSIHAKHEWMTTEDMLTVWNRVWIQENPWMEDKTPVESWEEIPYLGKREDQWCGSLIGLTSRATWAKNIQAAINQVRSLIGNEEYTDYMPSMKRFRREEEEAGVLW

Chain of Intestinal-type alkaline phosphatase (Mus musculus, UniProt P24822) (P24822 whole entry): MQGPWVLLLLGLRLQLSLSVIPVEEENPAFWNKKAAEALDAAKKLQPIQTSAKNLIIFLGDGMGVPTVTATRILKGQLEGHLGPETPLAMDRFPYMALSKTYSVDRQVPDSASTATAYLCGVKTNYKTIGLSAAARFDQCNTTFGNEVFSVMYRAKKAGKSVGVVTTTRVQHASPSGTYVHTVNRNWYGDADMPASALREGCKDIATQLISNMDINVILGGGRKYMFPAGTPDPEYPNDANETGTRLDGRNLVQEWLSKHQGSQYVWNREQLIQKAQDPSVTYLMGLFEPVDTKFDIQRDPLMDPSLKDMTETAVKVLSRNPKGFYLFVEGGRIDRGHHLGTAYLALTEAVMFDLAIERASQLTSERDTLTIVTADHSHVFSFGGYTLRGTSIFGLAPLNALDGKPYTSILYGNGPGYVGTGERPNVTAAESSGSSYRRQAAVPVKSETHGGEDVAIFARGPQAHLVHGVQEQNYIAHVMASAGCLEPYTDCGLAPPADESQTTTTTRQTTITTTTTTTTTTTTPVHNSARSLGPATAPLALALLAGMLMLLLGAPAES
Chain of Intestinal-type alkaline phosphatase (Homo sapiens, UniProt P09923) (P09923 whole entry, the tested form may be a part): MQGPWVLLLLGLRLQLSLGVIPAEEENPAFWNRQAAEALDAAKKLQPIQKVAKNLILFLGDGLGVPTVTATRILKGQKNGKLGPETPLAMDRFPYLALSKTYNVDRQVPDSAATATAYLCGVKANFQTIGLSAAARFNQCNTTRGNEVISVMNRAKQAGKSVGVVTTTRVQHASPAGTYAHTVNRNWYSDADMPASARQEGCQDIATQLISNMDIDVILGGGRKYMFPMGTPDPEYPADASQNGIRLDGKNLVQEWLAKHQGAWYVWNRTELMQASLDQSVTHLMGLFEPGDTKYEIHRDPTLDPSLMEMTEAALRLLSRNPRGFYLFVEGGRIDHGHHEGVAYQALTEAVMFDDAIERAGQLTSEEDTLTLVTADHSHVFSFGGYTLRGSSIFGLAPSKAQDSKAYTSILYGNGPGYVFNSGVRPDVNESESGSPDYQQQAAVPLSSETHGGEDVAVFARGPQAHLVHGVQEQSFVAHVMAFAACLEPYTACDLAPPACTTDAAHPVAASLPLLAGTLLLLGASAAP
Chain of Tumor necrosis factor (P01375 whole entry, the tested form may be a part): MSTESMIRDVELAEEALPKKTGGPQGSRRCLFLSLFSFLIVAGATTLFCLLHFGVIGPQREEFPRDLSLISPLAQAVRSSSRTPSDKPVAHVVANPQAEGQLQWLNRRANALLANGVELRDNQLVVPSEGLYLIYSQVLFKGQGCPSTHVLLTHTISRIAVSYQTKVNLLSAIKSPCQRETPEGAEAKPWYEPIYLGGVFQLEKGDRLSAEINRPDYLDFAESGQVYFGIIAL
Chain of Large T antigen (P03070 whole entry): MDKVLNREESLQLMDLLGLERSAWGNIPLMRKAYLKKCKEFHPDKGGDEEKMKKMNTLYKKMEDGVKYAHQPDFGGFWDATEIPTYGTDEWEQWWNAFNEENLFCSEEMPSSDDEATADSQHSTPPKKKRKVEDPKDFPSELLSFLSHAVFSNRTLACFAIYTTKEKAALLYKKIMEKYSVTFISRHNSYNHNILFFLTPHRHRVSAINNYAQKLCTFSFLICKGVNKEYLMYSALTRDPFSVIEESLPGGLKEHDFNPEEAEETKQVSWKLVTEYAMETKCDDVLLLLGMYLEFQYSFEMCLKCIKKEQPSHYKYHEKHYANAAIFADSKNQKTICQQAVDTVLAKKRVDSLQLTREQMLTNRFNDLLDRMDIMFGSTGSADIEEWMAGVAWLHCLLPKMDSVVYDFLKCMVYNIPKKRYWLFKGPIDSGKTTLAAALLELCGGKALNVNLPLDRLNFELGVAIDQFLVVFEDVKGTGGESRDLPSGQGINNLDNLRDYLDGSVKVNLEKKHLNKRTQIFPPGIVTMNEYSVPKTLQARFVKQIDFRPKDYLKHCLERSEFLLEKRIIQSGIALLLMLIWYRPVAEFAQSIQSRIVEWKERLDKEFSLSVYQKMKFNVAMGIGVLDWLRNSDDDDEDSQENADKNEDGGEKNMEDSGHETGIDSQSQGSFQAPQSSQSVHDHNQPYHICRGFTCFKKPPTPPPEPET
Chain of FAD-linked sulfhydryl oxidase ALR (P55789 whole entry): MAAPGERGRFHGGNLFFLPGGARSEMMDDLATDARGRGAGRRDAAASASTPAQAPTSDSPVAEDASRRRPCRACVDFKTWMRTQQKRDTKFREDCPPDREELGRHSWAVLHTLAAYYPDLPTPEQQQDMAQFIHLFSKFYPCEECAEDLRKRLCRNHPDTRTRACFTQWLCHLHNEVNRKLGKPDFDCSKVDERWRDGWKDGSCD
Chain of Procathepsin L (P07711 whole entry): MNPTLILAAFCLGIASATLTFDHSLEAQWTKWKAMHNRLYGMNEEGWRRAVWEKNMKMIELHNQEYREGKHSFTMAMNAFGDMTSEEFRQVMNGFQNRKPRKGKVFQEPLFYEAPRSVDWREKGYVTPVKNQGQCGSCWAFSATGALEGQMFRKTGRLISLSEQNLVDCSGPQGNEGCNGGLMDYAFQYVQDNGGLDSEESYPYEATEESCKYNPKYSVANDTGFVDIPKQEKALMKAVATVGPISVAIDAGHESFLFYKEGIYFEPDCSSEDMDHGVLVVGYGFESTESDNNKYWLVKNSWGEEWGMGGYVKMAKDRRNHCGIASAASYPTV

Consider `CC1Cc2cc(S(=O)(=O)N3CCN(c4ccccc4)CC3)ccc2N1C(=O)C1CC1` (stereo not given), for which the concentration for half-maximal inhibition (IC50) was 15.3 µM (active) on Tumor necrosis factor, > 20 µM (inactive) in experiment [1] and > 20 µM (inactive) with HEK293.

Regarding `O=[N+]([O-])c1c(O)nc(/C=C\c2ccc(O)c(O)c2)nc1O`, the EC50 in experiment [2] was 250 µM (active); in experiment [3] it was 179 µM (active). Also, the concentration for half-maximal inhibition (IC50) at Aspartyl aminopeptidase is 0.67 µM (active); at Procathepsin L, > 59.6 µM (not active); at Large T antigen, 4.72 µM (active); in [4] it was 1.04 µM (active); in experiment [6] it was 1.12 µM (active); in experiment [7], 4.34 µM (active). Besides, the concentration for half-maximal inhibition (IC50) in experiment [8] is 36.1 µM (active). Moreover, in experiment [5], the AC50 was 1.05 µM (active).

On to `Cc1ccc(Cl)c2c(C3=NC(=S)NC3=O)c(O)[nH]c12`, for which the EC50 in experiment [2] was 14.3 µM (active); in experiment [3], 0.294 µM (inconclusive); in [9], > 260 µM (inactive). Further, the IC50 in experiment [4] was 0.206 µM (active); in experiment [6], 0.211 µM (active); in [7], > 100 µM (inactive); at Genome polyprotein, 61.5 µM (active).
